Measured values reported in the supplement of paper PMC11061612.

Tests used:
Assay in all cases: combination Emax (second highest fraction inhibited in the dose matrix, 72 h); higher = more inhibition; extreme values may be limits of the assay
[1] = tested on: BC-1 (B-Cell Non-Hodgkin's Lymphoma)
In short: (§1)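 Cell lines in DMEM/F12 or RPMI with 10% FBS were plated in 1536-well plates, held 24 hours at 37°C, 5% CO2, then given two-drug dose matrices for 72 hours (DMSO typically 0.2%). Viability was read by CellTiter-Glo 2.0 luminescence and scaled as inhibition from 0 (vehicle wells) to 1 (blank wells). Combination Emax is the second-highest inhibition in the matrix; Bliss excess is observed combination effect minus expected EA + EB − EA·EB, EA and EB being single-agent effects.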

[2] = tested on: BT-474 (Breast Carcinoma)
In short: as §1

[3] = tested on: C2BBe1 (Colorectal Carcinoma)
In short: as §1

[4] = tested on: COR-L105 (Lung Adenocarcinoma)
In short: as §1

[5] = tested on: DK-MG (Glioblastoma)
In short: as §1

[6] = tested on: GCIY (Gastric Carcinoma)
In short: as §1

[7] = tested on: GRANTA-519 (B-Cell Non-Hodgkin's Lymphoma)
In short: as §1

[8] = tested on: HT-1197 (Bladder Carcinoma)
In short: as §1

[9] = tested on: HT-144 (Melanoma)
In short: as §1

[10] = tested on: JURL-MK1 (Chronic Myelogenous Leukemia)
In short: as §1

[11] = tested on: NCI-H1435 (Non-Small Cell Lung Carcinoma)
In short: as §1

[12] = tested on: NCI-H1944 (Lung Adenocarcinoma)
In short: as §1

[13] = tested on: NCI-H1975 (Lung Adenocarcinoma)
In short: as §1

[14] = tested on: RPMI-8402 (T-Lymphoblastic Leukemia)
In short: as §1

[15] = tested on: SCC90 (Head and Neck Carcinoma)
In short: as §1

[16] = tested on: SK-MEL-24 (Melanoma)
In short: as §1

[17] = tested on: SK-N-DZ (Neuroblastoma)
In short: as §1

[18] = tested on: SUP-HD1 (Hodgkin's Lymphoma)
In short: as §1

[19] = tested on: TK (B-Cell Non-Hodgkin's Lymphoma)
In short: as §1

[20] = tested on: TOV-21G (Ovarian Carcinoma)
In short: as §1

SMILES	combination Emax [1]	combination Emax [2]	combination Emax [3]	combination Emax [4]	combination Emax [5]	combination Emax [6]	combination Emax [7]	combination Emax [8]	combination Emax [9]	combination Emax [10]	combination Emax [11]	combination Emax [12]	combination Emax [13]	combination Emax [14]	combination Emax [15]	combination Emax [16]	combination Emax [17]	combination Emax [18]	combination Emax [19]	combination Emax [20]
NC1(C(=O)N[C@@H](CCO)c2ccc(Cl)cc2)CCN(c2ncnc3[nH]ccc23)CC1 [Capivasertib] + Cn1cnc2c(F)c(Nc3ccc(Br)cc3Cl)c(C(=O)NOCCO)cc21 [Selumetinib] (first compound max 10 µM, 7x7, partner max 10 µM)	0.829	0.39	0.569	0.492	0.621	0.512	0.205	0.531	0.985	1	0.244	0.738	0.829	0.633	0.992	0.856	0.405	0.496	0.0522	0.876
COc1cccc2c1C(=O)c1c(O)c3c(c(O)c1C2=O)C[C@@](O)(C(=O)CO)C[C@@H]3O[C@H]1C[C@H](N)[C@H](O)[C@H](C)O1 [Doxorubicin] + Cc1cc2ncnn2cc1Nc1ncc2c(n1)n(C1CCOCC1)c(=O)n2C [AZD7648] (first compound max 1 µM, 7x7, partner max 10 µM)	1	0.197	0.242	0.473	0.469	0.663	0.856	0.735	0.583	1	0.198	0.625	0.932	1	0.603	0.725	0.613	0.878	0.73	0.561
CS(=O)(=O)CCNCc1ccc(-c2ccc3ncnc(Nc4ccc(OCc5cccc(F)c5)c(Cl)c4)c3c2)o1 [Lapatinib] + C[C@@H](Oc1cc(-c2cnn(C3CCNCC3)c2)cnc1N)c1c(Cl)ccc(F)c1Cl [Crizotinib] (first compound max 10 µM, 7x7, partner max 10 µM)	0.959	0.905	0.745	0.815	0.925	0.882	0.751	0.536	0.998	1	0.871	0.958	0.631	0.995	0.946	0.967	0.899	0.895	0.701	0.953
CC(=O)c1c(C)c2cnc(Nc3ccc(N4CCNCC4)cn3)nc2n(C2CCCC2)c1=O [Palbociclib] + CC1(C)CCC(CN2CCN(c3ccc(C(=O)NS(=O)(=O)c4ccc(NCC5CCOCC5)c([N+](=O)[O-])c4)c(Oc4cnc5[nH]ccc5c4)c3)CC2)=C(c2ccc(Cl)cc2)C1 [Venetoclax] (first compound max 10 µM, 7x7, partner max 1 µM)	0.917	0.0591	0.111	0.0862	0.286	0.17	0.541	0.16	0.555	0.661	0.132	0.523	0.423	0.972	0.155	0.182	0.516	0.758	0.975	0.519
CC(=O)c1c(C)c2cnc(Nc3ccc(N4CCNCC4)cn3)nc2n(C2CCCC2)c1=O [Palbociclib] + Cc1c2c(nn1C)CSCc1cc(n(C)n1)CSc1cc(c3ccccc3c1)OCCCc1c(C(=O)O)n(C)c3c-2c(Cl)ccc13 [AZD5991] (first compound max 10 µM, 7x7, partner max 1 µM)	1	0.497	0.229	0.207	0.366	0.2	0.295	0.247	0.972	1	0.171	0.633	0.321	0.974	0.965	0.283	0.55	0.62	0.266	0.488
CC(=O)c1c(C)c2cnc(Nc3ccc(N4CCNCC4)cn3)nc2n(C2CCCC2)c1=O [Palbociclib] + Cn1cnc2c(F)c(Nc3ccc(Br)cc3Cl)c(C(=O)NOCCO)cc21 [Selumetinib] (first compound max 10 µM, 7x7, partner max 10 µM)	0.91	0.0817	0.379	0.403	0.435	0.416	0.367	0.245	0.896	1	0.147	0.534	0.455	0.957	0.726	0.654	0.61	0.445	0.196	0.519
COc1cccc(OCCCN)c1-c1cc(Nc2cnc(C#N)cn2)n[nH]1 [Prexasertib] + C=CCn1c(=O)c2cnc(Nc3ccc(N4CCN(C)CC4)cc3)nc2n1-c1cccc(C(C)(C)O)n1 [AZD1775] (first compound max 1 µM, partner max 1 µM)	1	0.234	0.613	0.444	0.387	0.911	0.867	0.646	0.838	1	0.403	0.815	0.516	1	0.94	0.703	1	0.906	0.882	0.618
COc1cccc(OCCCN)c1-c1cc(Nc2cnc(C#N)cn2)n[nH]1 [Prexasertib] + CCc1c2c(nc3ccc(O)cc13)-c1cc3c(c(=O)n1C2)COC(=O)[C@]3(O)CC [SN-38] (first compound max 1 µM, 7x7, partner max 0.3 µM)	0.997	0.244	0.708	0.488	0.295	0.929	1	0.543	0.912	1	0.481	0.857	0.861	1	0.952	0.837	1	0.954	1	0.852
COc1cccc(OCCCN)c1-c1cc(Nc2cnc(C#N)cn2)n[nH]1 [Prexasertib] + CN(C)CCCOc1ccc(-c2ccc3ncc4c(c3c2)n(C2CCOCC2)c(=O)n4C)cn1 [AZD0156] (first compound max 1 µM, 7x7, partner max 1 µM)	0.984	0.237	0.582	0.435	0.32	0.853	0.873	0.571	0.744	1	0.365	0.785	0.291	1	0.737	0.624	1	0.886	0.918	0.621
COc1cccc(OCCCN)c1-c1cc(Nc2cnc(C#N)cn2)n[nH]1 [Prexasertib] + C[C@@H]1COCCN1C2=NC(=NC(=C2)C3(CC3)[S@](=N)(=O)C)C4=C5C=CNC5=NC=C4 [AZD6738] (first compound max 1 µM, 7x7, partner max 10 µM)	0.996	0.133	0.556	0.473	0.216	0.911	0.856	0.603	0.853	1	0.283	0.789	0.426	1	0.679	0.646	1	0.903	0.901	0.591
COc1cccc(OCCCN)c1-c1cc(Nc2cnc(C#N)cn2)n[nH]1 [Prexasertib] + Cc1cc2ncnn2cc1Nc1ncc2c(n1)n(C1CCOCC1)c(=O)n2C [AZD7648] (first compound max 1 µM, 7x7, partner max 10 µM)	0.991	0.222	0.625	0.444	0.312	0.879	0.852	0.517	0.72	1	0.336	0.806	0.409	1	0.755	0.61	1	0.89	0.872	0.617
COc1cccc(OCCCN)c1-c1cc(Nc2cnc(C#N)cn2)n[nH]1 [Prexasertib] + O=C(c1cc(Cc2n[nH]c(=O)c3ccccc23)ccc1F)N1CCN(C(=O)C2CC2)CC1 [Olaparib] (first compound max 1 µM, 7x7, partner max 10 µM)	0.986	0.24	0.414	0.401	0.224	0.837	0.865	0.478	0.712	1	0.345	0.613	0.299	1	0.679	0.607	0.97	0.802	0.891	0.579
CCc1c2c(nc3ccc(O)cc13)-c1cc3c(c(=O)n1C2)COC(=O)[C@]3(O)CC [SN-38] + CN(C)CCCOc1ccc(-c2ccc3ncc4c(c3c2)n(C2CCOCC2)c(=O)n4C)cn1 [AZD0156] (first compound max 0.3 µM, 7x7, partner max 1 µM)	0.979	0.0708	0.149	0.536	0.241	0.8	0.93	0.156	0.753	1	0.202	0.686	0.514	1	0.423	0.825	0.901	0.907	0.991	0.574
